Measured values from patent publication US9809697B2, “Crosslinking agent, crosslinked polymer, and compound” (THE NIPPON SYNTHETIC CHEMICAL INDUSTRY CO., LTD., priority 2013, dated 2017).

Assay: Solubility in water
Format: physicochemical
Settings: solubility in 100 g of water at 23° C.
Procedure: The white solid obtained above was examined for solubility in 100 g of water at 23° C.

SMILES	Crosslinking agent Solubility [g]
NNC(=O)CCCCC(=O)NN [ADH, adipic acid dihydrazide]	12.5
CN(N)C(=O)CCCCC(=O)N(C)N [formula (4)]	150
